The target in the first assay is T1, human MCHR1 (Homo sapiens, UniProt Q99705).
T1 construct: host or cells: CHO
T1 sequence (Q99705 whole entry): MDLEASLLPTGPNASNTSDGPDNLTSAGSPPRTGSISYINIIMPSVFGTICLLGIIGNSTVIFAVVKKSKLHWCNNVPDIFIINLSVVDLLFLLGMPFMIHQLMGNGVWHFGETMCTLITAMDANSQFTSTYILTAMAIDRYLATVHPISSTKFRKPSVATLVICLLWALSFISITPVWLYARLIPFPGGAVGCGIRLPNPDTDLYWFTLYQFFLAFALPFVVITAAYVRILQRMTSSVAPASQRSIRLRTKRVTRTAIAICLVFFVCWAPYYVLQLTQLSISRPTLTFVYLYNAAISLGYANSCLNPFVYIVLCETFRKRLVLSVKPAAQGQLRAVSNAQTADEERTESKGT
Nature of the assay: Cyclic AMP assay (MCHR-1 functional antagonism). The class given is cell-based. The note with it: CHO cells stably expressing human MCHR1; cAMP accumulation with 25 uM forskolin and 0.2 nM MCH, 90 min; Ki from IC50 by Cheng-Prusoff; read-out: MCHR-1 functional Ki. The method, then:
CHO cell lines stably expressing the human MCHR1 (Euroscreen, Brussels, Belgium) were maintained in DMEM containing Glutamax (Invitrogen, Carlsbad, Calif.), 10% FBS, 400 ug/ml Geneticin.
Cyclic AMP assays. CHO cells stably expressing the human MCHR1 receptors were collected and resuspended at a density of 4.0×10^6 cells/ml in F12 (Hams) media and seeded (20,000 cells per well) into 384-well, solid white Greiner assay plates. […] Cells were incubated at 37° C./5% CO2 for 90 minutes and cAMP accumulation subsequently determined by DiscoveRx Hithunter c-AMP II Assay kit (GE Healthcare, Buckinghamshire, UK) in accordance with manufactures instructions. Luminescence was measured on a LEADseaker imaging system (GE Healthcare, Buckinghamshire, UK). IC50 values were calculated from dose-response data fit using an in-house computer graphics and statistics program.
As to `COC(=O)N1CCN(c2ccc(-n3ccc(OCc4ccccc4)cc3=O)cn2)CC1` [Example 48], the Ki was determined as 705 nM.

Regarding `N[C@H]1CCN(c2ccc(-n3ccc(OCc4ccccc4)cc3=O)cn2)C1` [Example 55, 6′-[(3S)-3-aminopyrrolidin-1-yl]-4-(benzyloxy)-2H-1,3′-bipyridin-2-one], the Ki is 3.66 nM.

For the molecule `CN(C)[C@@H]1CCN(c2ccc(-n3ccc(OCc4ccccc4)cc3=O)cn2)C1` [Example 56], the Ki is 3.69 nM.

In the case of `CN(C)[C@H]1CCN(c2ccc(-n3ccc(OCc4ccccc4)cc3=O)cn2)C1` [Example 57], the Ki is 3.66 nM.

Consider `CNC1CCN(c2ccc(-n3ccc(OCc4ccccc4)cc3=O)cn2)CC1` [Example 58], for which the Ki came out at 28.8 nM.

Consider `O=c1cc(OCc2ccccc2)ccn1-c1ccc(N2CCC2)nc1` [Example 59], for which the Ki came to 68.3 nM.

On to `CC(C)N(C)[C@H]1CCN(c2ccc(-n3ccc(OCc4ccccc4)cc3=O)cn2)C1` [Example 60], for which the Ki turned out to be 2.94 nM.

On to `O=c1cc(OCc2ccccc2)ccn1-c1ccc(N2CCC(N3CCC3)C2)nc1` (stereo not drawn) [Example 61], for which the Ki was 18.7 nM.

With `O=c1cc(OCc2ccccc2)ccn1-c1ccc(N2CCC(N3CCCC3)C2)nc1` (stereo not drawn) [Example 63], the inhibition constant (Ki) turned out to be 12.1 nM.

Regarding `O=c1cc(OCc2ccccc2)ccn1-c1ccc(N2CC3CCC(C2)N3)nc1` [Example 69], the Ki came to 124 nM.

Turning to `CC(C)C1CN(c2ccc(-n3ccc(OCc4ccccc4)cc3=O)cn2)CCN1` (stereo not drawn) [Example 70], the Ki is 102 nM.

For `CC(C)CC1CN(c2ccc(-n3ccc(OCc4ccccc4)cc3=O)cn2)CCN1` (stereo not drawn) [Example 71], the Ki turned out to be 626 nM.

As to `CCC1CN(c2ccc(-n3ccc(OCc4ccccc4)cc3=O)cn2)CCN1` (stereo not drawn) [Example 72], the Ki amounted to 74.6 nM.

`C[C@@H]1CN(c2ccc(-n3ccc(OCc4ccccc4)cc3=O)cn2)[C@@H](C)CN1` [Example 73]: the Ki was determined as 517 nM.

Turning to `O=c1cc(OCc2ccccc2)ccn1-c1ccc(N2CC(N3CCCC3)C2)nc1` [Example 78], the Ki is 155 nM.

`O=c1cc(OCc2ccccc2)ccn1-c1ccc(N2CC(N3CCC3)C2)nc1` [Example 79]: the Ki is 416 nM.

For the molecule `COC(=O)N1CCN(c2ccc(-n3ccc(OCc4ccc(F)cc4)cc3=O)cn2)CC1` [Example 81], the Ki came out at 1170 nM.

Regarding `CC(=O)N1CCN(c2ccc(-n3ccc(OCc4ccc(F)cc4)cc3=O)cn2)CC1` [Example 83], the Ki was determined as 851 nM.

Regarding `O=c1cc(OCc2ccc(F)cc2)ccn1-c1ccc(N2CCC[C@@H](O)C2)nc1` [Example 87], the Ki was 191 nM.

In the case of `O=c1cc(OCc2ccc(F)cc2)ccn1-c1ccc(N2CCC[C@H](O)C2)nc1` [Example 88], the Ki was 1140 nM.

Take `O=c1cc(OCc2ccc(F)cc2)ccn1-c1ccc(N2CCC2)nc1` [Example 90]: the Ki was 96.7 nM.

As to `O=c1cc(OCc2ccc(F)cc2)ccn1-c1ccc(N2CC(O)C2)nc1` [Example 91], the Ki was determined as 396 nM.

Regarding `O=c1cc(COc2ccc(F)cc2)ccn1-c1ccc(N2CC[C@@H](O)C2)nc1` [Example 93], the Ki came to 1090 nM.

`O=c1cc(OCc2ccc(F)cc2)ccn1-c1ccc(N2CC(N3CCCC3)C2)nc1` [Example 95]: the Ki is 147 nM.

Regarding `O=c1cc(OCc2ccc(F)cc2)ccn1-c1ccc(N2CC(N3CCC3)C2)nc1` [Example 96], the Ki is 195 nM.

As for `O=c1cc(OCc2ccc(Cl)cc2)ccn1-c1ccc(N2C[C@@H](O)[C@@H](O)C2)nc1` [Example 101], the Ki is 25.8 nM.

As for `N[C@@H]1CCN(c2ccc(-n3ccc(OCc4ccc(Cl)cc4)cc3=O)cn2)C1` [Example 105], the Ki stood at 6.34 nM.

Take `O=c1cc(OCc2ccc(Cl)cc2)ccn1-c1ccc(N2CCC[C@@H](O)C2)nc1` [Example 106]: the Ki was 65.8 nM.

Regarding `O=c1cc(OCc2ccc(Cl)cc2)ccn1-c1ccc(N2C[C@H]3CNC[C@H]3C2)nc1` [Example 107], the Ki was found to be 5.43 nM.

Still in this assay, the particulars now being: MCHR-1 functional Ki (nM), CHO cells stably expressing human MCHR1; cAMP accumulation with 25 uM forskolin and 0.2 nM MCH, 90 min; Ki from IC50 by Cheng-Prusoff.
As to `N[C@@H]1CCN(c2ccc(-n3ccc(OCc4ccccc4)cc3=O)cn2)C1` [Example 54], affinity was put at a Ki of 5.91 nM.

Source of the values: patent publication US20080085884A1, “Melanin Concentrating Hormone Receptor-1 Antagonist Pyridinones” (Pfizer Inc, priority 2006, published 2008).
